The structures appear in SMILES notation. Peptide text beside a SMILES is read from it.

The target in the test is S1-ACE2 complex (Severe acute respiratory syndrome coronavirus 2, UniProt P0DTC2). Format: binding, human (ACE2); SARS-CoV-2 (S1). The note with it: 5 μM peptide; preincubation 3 to 60 min.

`CC(C)C[C@H](NC(=O)[C@H](CC(=O)O)NC(=O)[C@H](CCC(=O)O)NC(=O)[C@H](C)NC(=O)[C@H](CCC(=O)O)NC(=O)[C@H](Cc1c[nH]cn1)NC(=O)[C@H](CC(N)=O)NC(=O)[C@H](Cc1ccccc1)NC(=O)[C@H](CCCCN)NC(=O)[C@H](CC(=O)O)NC(=O)[C@H](CC(C)C)NC(=O)[C@H](Cc1ccccc1)NC(=O)[C@@H](NC(=O)[C@H](CCCCN)NC(=O)[C@H](C)NC(=O)[C@@H](N)CCC(N)=O)[C@@H](C)O)C(=O)N[C@@H](Cc1ccccc1)C(=O)N[C@@H](Cc1ccc(O)cc1)C(=O)N[C@@H](CCC(N)=O)C(N)=O` (H-QAKTFLDKFNHEAEDLFYQ-NH2): the “half-life of preincubation-time effect on koff^rel” value came out at 14 min.

Source of the values: article PMC8634746 (International Journal of Peptide Research and Therapeutics, 2021).
